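Briefly, cells in 96-well plates were exposed to five compound concentrations for 48 h, and endpoints were estimated by linear interpolation. The concentration for 50% growth inhibition is given as GI50.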 Calls of active or inactive are those of the source. Cut-off read from the data, not from the text of the source: active = GI50 up to about 1.1 µM and inactive = higher.
Assays:
Test in all cases: growth of human tumour cells (NCI), 48 h
LOX IMVI = test system: LOX IMVI
OVCAR-3 = test system: OVCAR-3
NCI-H23 = test system: NCI-H23
OVCAR-8 = test system: OVCAR-8
SN12C = test system: SN12C
Malme-3M = test system: Malme-3M
COLO 205 = test system: COLO 205
HOP-62 = test system: HOP-62
NCI-H460 = test system: NCI-H460
MOLT-4 = test system: MOLT-4
UO-31 = test system: UO-31
RPMI-8226 = test system: RPMI-8226
HCT-15 = test system: HCT-15
HT-29 = test system: HT-29
SNB-75 = test system: SNB-75
HCC 2998 = test system: HCC 2998
MCF7 = test system: MCF7
A498 = test system: A498
SF-539 = test system: SF-539
NCI-H522 = test system: NCI-H522

Row | Compound | GI50 (LOX IMVI) | GI50 (OVCAR-3) | GI50 (NCI-H23) | GI50 (OVCAR-8) | GI50 (SN12C) | GI50 (Malme-3M) | GI50 (COLO 205) | GI50 (HOP-62) | GI50 (NCI-H460) | GI50 (MOLT-4) | GI50 (UO-31) | GI50 (RPMI-8226) | GI50 (HCT-15) [µM] | GI50 (HT-29) | GI50 (SNB-75) | GI50 (HCC 2998) | GI50 (MCF7) | GI50 (A498) | GI50 (SF-539) | GI50 (NCI-H522)
1 | COc1ccc(C2C(C(=O)O)=C(CO)Oc3cc4c(cc32)OCO4)cc1 (configuration not stated) | > 100 µM (inactive) | > 100 µM (inactive) | > 100 µM (inactive) | > 100 µM (inactive) | > 100 µM (inactive) | > 100 µM (inactive) | > 100 µM (inactive) | 32.5 µM (inactive) | > 100 µM (inactive) | > 10 µM (inactive) | > 100 µM (inactive) | > 100 µM (inactive) | > 100 | > 100 µM (inactive) | 27.4 µM (inactive) |  |  |  |  | 
2 | O=c1[nH]nc(NCc2ccccc2)c2nnn(Cc3ccccc3)c12 | > 100 µM (inactive) | > 100 µM (inactive) | > 100 µM (inactive) | > 100 µM (inactive) | > 100 µM (inactive) | > 100 µM (inactive) | > 100 µM (inactive) | > 100 µM (inactive) | > 100 µM (inactive) | > 100 µM (inactive) | > 100 µM (inactive) | > 100 µM (inactive) | > 100 | > 100 µM (inactive) |  | > 100 µM (inactive) | > 100 µM (inactive) |  |  | 
3 | N=S(=O)(c1ccccc1)c1ccccc1 | > 100 µM (inactive) | > 100 µM (inactive) | > 100 µM (inactive) | > 100 µM (inactive) | > 100 µM (inactive) | > 100 µM (inactive) | > 100 µM (inactive) | > 100 µM (inactive) | > 100 µM (inactive) | 22 µM (inactive) | > 100 µM (inactive) | > 100 µM (inactive) |  | > 10 µM (inactive) | > 100 µM (inactive) | > 100 µM (inactive) |  | > 100 µM (inactive) | > 100 µM (inactive) | > 100 µM (inactive)
4 | NC(CCOCCP(=O)(O)O)C(=O)O (configuration not stated) | > 100 µM (inactive) | > 100 µM (inactive) | > 100 µM (inactive) | > 100 µM (inactive) | > 100 µM (inactive) |  | > 100 µM (inactive) |  | > 100 µM (inactive) | > 100 µM (inactive) | > 100 µM (inactive) | > 100 µM (inactive) | > 100 | > 100 µM (inactive) | > 100 µM (inactive) | > 100 µM (inactive) | > 100 µM (inactive) |  | > 100 µM (inactive) | > 100 µM (inactive)
5 | Nc1nc(=O)[nH][nH]1 | > 100 µM (inactive) | > 100 µM (inactive) | > 100 µM (inactive) | > 100 µM (inactive) | > 100 µM (inactive) | > 100 µM (inactive) | > 100 µM (inactive) | > 100 µM (inactive) | > 100 µM (inactive) | > 100 µM (inactive) | > 100 µM (inactive) | > 100 µM (inactive) | > 100 | > 100 µM (inactive) | > 100 µM (inactive) | > 100 µM (inactive) | > 100 µM (inactive) | > 100 µM (inactive) | > 100 µM (inactive) | > 100 µM (inactive)
6 | Cc1n[nH]c(N)c1C(N)=O | > 100 µM (inactive) |  | > 100 µM (inactive) | > 100 µM (inactive) | > 100 µM (inactive) | > 100 µM (inactive) | > 100 µM (inactive) |  |  | > 100 µM (inactive) | > 100 µM (inactive) | > 100 µM (inactive) | > 100 | > 100 µM (inactive) | > 100 µM (inactive) | > 100 µM (inactive) |  | > 100 µM (inactive) | > 100 µM (inactive) | > 100 µM (inactive)
7 | O=C1NC(=O)C2(CCc3ccc(N(CCCl)CCCl)cc32)N1 (configuration not stated) | 8.99 µM (inactive) | 18.4 µM (inactive) | 6.5 µM (inactive) | 14.1 µM (inactive) | 5.37 µM (inactive) |  | 12.3 µM (inactive) | 9.91 µM (inactive) | 3.98 µM (inactive) | 0.931 µM (active) | 11 µM (inactive) | 19.7 µM (inactive) | 15.1 | 16.4 µM (inactive) | 7.48 µM (inactive) | 15.9 µM (inactive) | 10.1 µM (inactive) | 16.9 µM (inactive) | 5.27 µM (inactive) | 5.26 µM (inactive)
8 | C[Si](C)(OCCS(=O)(=O)O)C1(Cc2cccc3ccccc23)S(=O)(=O)OCCOS1(=O)=O | 16.2 µM (inactive) | 12.6 µM (inactive) | 27.8 µM (inactive) | 19.5 µM (inactive) | 18.2 µM (inactive) |  | 12.3 µM (inactive) | 19.6 µM (inactive) | 21.1 µM (inactive) | 34.9 µM (inactive) | 17.9 µM (inactive) | 18.4 µM (inactive) | 19.6 |  | 15.5 µM (inactive) | 16.5 µM (inactive) | 19.4 µM (inactive) | 15.9 µM (inactive) | 18.6 µM (inactive) | 13.7 µM (inactive)
9 | OC[C@H]1NC[C@@H](O)[C@@H](O)[C@H]1O | > 100 µM (inactive) | > 100 µM (inactive) | > 100 µM (inactive) | > 100 µM (inactive) | > 100 µM (inactive) | > 100 µM (inactive) | > 100 µM (inactive) | > 100 µM (inactive) | > 100 µM (inactive) | > 100 µM (inactive) | > 100 µM (inactive) | > 100 µM (inactive) | > 100 | > 100 µM (inactive) | 9.29 µM (inactive) | > 100 µM (inactive) | > 100 µM (inactive) | > 100 µM (inactive) |  | 

— ChEMBL document CHEMBL1201862, “PubChem BioAssay data set” (2004)
